Patent US20260226068A1, “IMIDAZOTRIAZINE IL-17A MODULATORS AND USES THEREOF” (DICE ALPHA, INC., priority 2023, published 2026)

How the values were obtained:
IL-17A/A = target: T1, IL-17A/A (Homo sapiens, UniProt Q16552); test: IL-17A/A HEK-Blue cell assay (SEAP reporter); type: cell-based; details: HEK-Blue IL-17A reporter cells, IL17A/A 5 ng/mL, 20 hours, SEAP read at A630; read-out: HEK-Blue IL17AA (IC50 for IL-17A/A inhibition)
T1 construct: purchased Genscript Z03228
T1 sequence (Q16552 24-155): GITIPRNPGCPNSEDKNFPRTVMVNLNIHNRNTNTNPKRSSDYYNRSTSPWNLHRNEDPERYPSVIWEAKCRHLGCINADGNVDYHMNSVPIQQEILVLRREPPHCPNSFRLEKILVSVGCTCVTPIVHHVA

IL-17A/F = target: T2, IL-17A/F (Homo sapiens, UniProt Q16552+Q96PD4); test: IL-17A/F HEK-Blue cell assay (SEAP reporter); type: cell-based; details: HEK-Blue IL-17A reporter cells, IL17A/F 5 ng/mL, 20 hours, SEAP read at A630; read-out: HEK-Blue IL17AF (IC50 for IL-17A/F inhibition)
T2 construct: purchased R&D Systems
T2 sequence (Q16552 24-155): T1 sequence (Q16552 24-155)
T2 sequence (Q96PD4 31-163): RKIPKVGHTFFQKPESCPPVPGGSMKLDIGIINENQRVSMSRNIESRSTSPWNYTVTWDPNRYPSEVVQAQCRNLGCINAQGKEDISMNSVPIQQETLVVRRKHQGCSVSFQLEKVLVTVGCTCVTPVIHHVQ

Row | IC50 (IL-17A/A) [nM] | IC50 (IL-17A/F) [nM] | SMILES
1 | < 100 | 100 to 1000 | Cn1nccc1C(=O)N[C@H](c1cn2nc(C[C@H]3C[C@@H](C(F)(F)F)CNC3=O)c(C3CCC(F)(F)CC3)nc2n1)C1CCC(F)(F)CC1 [Compound 262, N—((S)-(4,4-difluorocyclohexyl)(3-(4,4-difluorocyclohexyl)-2-(((3R,5R)-2-oxo-5-(trifluoromethyl)piperidin-3-yl)methyl)imidazo[1,2-b][1,2,4]triazin-6-yl)methyl)-1-methyl-1H-pyrazole-5-carboxamide]
2 | < 100 | > 1000 | CCn1nccc1C(=O)N[C@H](c1cn2nc(C[C@H]3C[C@@H](C(F)(F)F)CNC3=O)c(C3(OC)CCOCC3)nc2n1)C1CCC(F)(F)CC1 [Compound 269, N—((S)-(4,4-difluorocyclohexyl)(3-(4-methoxytetrahydro-2H-pyran-4-yl)-2-(((3R,5R)-2-oxo-5-(trifluoromethyl)piperidin-3-yl)methyl)imidazo[1,2-b][1,2,4]triazin-6-yl)methyl)-1-ethyl-1H-pyrazole-5-carboxamide]
3 | < 100 | > 1000 | CCn1nccc1C(=O)N[C@H](c1cn2nc(C[C@H]3C[C@@H](C(F)(F)F)CNC3=O)c(C3(OC)CCC(F)(F)CC3)nc2n1)C1CCC(F)(F)CC1 [Compound 270, N—((S)-(3-(4,4-difluoro-1-methoxycyclohexyl)-2-(((3R,5R)-2-oxo-5-(trifluoromethyl)piperidin-3-yl)methyl)imidazo[1,2-b][1,2,4]triazin-6-yl)(4,4-difluorocyclohexyl)methyl)-1-ethyl-1H-pyrazole-5-carboxamide]
4 | < 100 | > 1000 | CCn1nccc1C(=O)N[C@H](c1cn2nc(C[C@H]3C[C@@H](C(F)(F)F)CNC3=O)c(C(C)(F)F)nc2n1)C1CCC(F)(F)CC1 [Compound 273, N—((S)-(4,4-difluorocyclohexyl)(3-(1,1-difluoroethyl)-2-(((3R,5R)-2-oxo-5-(trifluoromethyl)piperidin-3-yl)methyl)imidazo[1,2-b][1,2,4]triazin-6-yl)methyl)-1-ethyl-1H-pyrazole-5-carboxamide]
5 | < 100 | 100 to 1000 | CCn1nccc1C(=O)N[C@H](c1cn2nc(C[C@H]3C[C@@H](C(F)(F)F)CNC3=O)c(CCOC)nc2n1)C1CCC(F)(F)CC1 [Compound 276, N—((S)-(4,4-difluorocyclohexyl)(3-(2-methoxyethyl)-2-(((3R,5R)-2-oxo-5-(trifluoromethyl)piperidin-3-yl)methyl)imidazo[1,2-b][1,2,4]triazin-6-yl)methyl)-1-ethyl-1H-pyrazole-5-carboxamide]
6 | < 100 | 100 to 1000 | Cn1nccc1C(=O)N[C@H](c1cn2nc(C[C@H]3C[C@@H](C(F)(F)F)CNC3=O)c(C3CCOCC3)nc2n1)[C@@H]1CCCC(F)(F)C1 [Compound 277, N—((S)—((R)-3,3-difluorocyclohexyl)(2-(((3R,5R)-2-oxo-5-(trifluoromethyl)piperidin-3-yl)methyl)-3-(tetrahydro-2H-pyran-4-yl)imidazo[1,2-b][1,2,4]triazin-6-yl)methyl)-1-methyl-1H-pyrazole-5-carboxamide]
7 | < 100 | 100 to 1000 | Cn1nccc1C(=O)N[C@H](c1cn2nc(C[C@H]3C[C@@H](C(F)(F)F)CNC3=O)c(C3CCOCC3)nc2n1)[C@H]1CCCC(F)(F)C1 [Compound 278, N—((S)—((S)-3,3-difluorocyclohexyl)(2-(((3R,5R)-2-oxo-5-(trifluoromethyl)piperidin-3-yl)methyl)-3-(tetrahydro-2H-pyran-4-yl)imidazo[1,2-b][1,2,4]triazin-6-yl)methyl)-1-methyl-1H-pyrazole-5-carboxamide]
8 | < 100 | > 1000 | CCn1nccc1C(=O)N[C@H](c1cn2nc(C[C@H]3CC(F)(F)CNC3=O)c(C3CCOCC3)nc2n1)C1CCC(F)(F)CC1 [Compound 279]
9 | < 100 | > 1000 | Cn1nccc1C(=O)N[C@H](c1cn2nc(C[C@H]3C[C@@H](C(F)(F)F)CNC3=O)c(C3(C)CCOCC3)nc2n1)C1CCC(F)(F)CC1 [Compound 280, N—((S)-(4,4-difluorocyclohexyl)(3-(4-methyltetrahydro-2H-pyran-4-yl)-2-(((3R,5R)-2-oxo-5-(trifluoromethyl)piperidin-3-yl)methyl)imidazo[1,2-b][1,2,4]triazin-6-yl)methyl)-1-methyl-1H-pyrazole-5-carboxamide]
10 | < 100 | 100 to 1000 | CCn1nccc1C(=O)N[C@H](c1cn2nc(C[C@H]3C[C@@H](C(F)(F)F)CC3=O)c(C3CCOCC3)nc2n1)C(C1CC1)C1CC1 [Compound 281]
11 | < 100 | < 100 | CCn1nccc1C(=O)N[C@H](c1cn2nc(C[C@H]3C[C@@H](C(F)(F)F)CNC3=O)c(N3CCO[C@H](C)C3)nc2n1)C1CCC(F)(F)CC1 [Compound 282, N—((S)-(4,4-difluorocyclohexyl)(3-((R)-2-methylmorpholino)-2-(((3R,5R)-2-oxo-5-(trifluoromethyl)piperidin-3-yl)methyl)imidazo[1,2-b][1,2,4]triazin-6-yl)methyl)-1-ethyl-1H-pyrazole-5-carboxamide]
12 | < 100 | 100 to 1000 | CCn1nccc1C(=O)N[C@H](c1cn2nc(C[C@H]3C[C@@H](C(F)(F)F)CNC3=O)c(N3CCO[C@@H](C)C3)nc2n1)C1CCC(F)(F)CC1 [Compound 283, N—((S)-(4,4-difluorocyclohexyl)(3-((S)-2-methylmorpholino)-2-(((3R,5R)-2-oxo-5-(trifluoromethyl)piperidin-3-yl)methyl)imidazo[1,2-b][1,2,4]triazin-6-yl)methyl)-1-ethyl-1H-pyrazole-5-carboxamide]
13 | 100 to 1000 | > 1000 | CCn1nccc1C(=O)N[C@H](c1cn2nc(C[C@H]3C[C@@H](C(F)(F)F)CNC3=O)c([C@@H]3CCNC3)nc2n1)C1CCC(F)(F)CC1 [Compound 284, N-((1S)-(4,4-difluorocyclohexyl)(2-(((3R,5R)-2-oxo-5-(trifluoromethyl)piperidin-3-yl)methyl)-3-(pyrrolidin-3-yl)imidazo[1,2-b][1,2,4]triazin-6-yl)methyl)-1-ethyl-1H-pyrazole-5-carboxamide]
14 | 100 to 1000 | > 1000 | CCn1nccc1C(=O)N[C@H](c1cn2nc(C[C@H]3C[C@@H](C(F)(F)F)CNC3=O)c(CNC)nc2n1)C1CCC(F)(F)CC1 [Compound 286, N—((S)-(4,4-difluorocyclohexyl)(3-((methylamino)methyl)-2-(((3R,5R)-2-oxo-5-(trifluoromethyl)piperidin-3-yl)methyl)imidazo[1,2-b][1,2,4]triazin-6-yl)methyl)-1-ethyl-1H-pyrazole-5-carboxamide]
15 | 100 to 1000 | > 1000 | CCn1nccc1C(=O)N[C@H](c1cn2nc(C[C@H]3C[C@@H](C(F)(F)F)CNC3=O)c(CN(C)C)nc2n1)C1CCC(F)(F)CC1 [Compound 287, N—((S)-(4,4-difluorocyclohexyl)(3-((dimethylamino)methyl)-2-(((3R,5R)-2-oxo-5-(trifluoromethyl)piperidin-3-yl)methyl)imidazo[1,2-b][1,2,4]triazin-6-yl)methyl)-1-ethyl-1H-pyrazole-5-carboxamide]
16 | < 100 | > 1000 | CCn1nccc1C(=O)N[C@H](c1cn2nc(C[C@H]3C[C@@H](C(F)(F)F)CNC3=O)c(CN3CCCCC3)nc2n1)C1CCC(F)(F)CC1 [Compound 288, N—((S)-(4,4-difluorocyclohexyl)(2-(((3R,5R)-2-oxo-5-(trifluoromethyl)piperidin-3-yl)methyl)-3-(piperidin-1-ylmethyl)imidazo[1,2-b][1,2,4]triazin-6-yl)methyl)-1-ethyl-1H-pyrazole-5-carboxamide]
17 | < 100 | < 100 | CCn1nccc1C(=O)N[C@H](c1cn2nc(C[C@H]3C[C@@H](C(F)(F)F)CNC3=O)c(C3CCOCC3)nc2n1)C1CCCCCC1 [Compound 289, N—((S)-cycloheptyl(2-(((3R,5R)-2-oxo-5-(trifluoromethyl)piperidin-3-yl)methyl)-3-(tetrahydro-2H-pyran-4-yl)imidazo[1,2-b][1,2,4]triazin-6-yl)methyl)-1-ethyl-1H-pyrazole-5-carboxamide]
18 | < 100 | < 100 | Cn1nccc1C(=O)N[C@H](c1cn2nc(C[C@H]3C[C@@H](C(F)(F)F)CNC3=O)c(C3CCOCC3)nc2n1)C1CCCCCC1 [Compound 290, N—((S)-cycloheptyl(2-(((3R,5R)-2-oxo-5-(trifluoromethyl)piperidin-3-yl)methyl)-3-(tetrahydro-2H-pyran-4-yl)imidazo[1,2-b][1,2,4]triazin-6-yl)methyl)-1-methyl-1H-pyrazole-5-carboxamide]
19 | < 100 | > 1000 | CCn1nccc1C(=O)N[C@H](c1cn2nc(C[C@H]3C[C@@H](C(F)(F)F)CNC3=O)c(C3CCOCC3)nc2n1)[C@H]1C[C@H]2C[C@H]2C1 [Compound 292, N—((S)-((1R,3r,5S)-bicyclo[3.1.0]hexan-3-yl)(2-(((3R,5R)-2-oxo-5-(trifluoromethyl)piperidin-3-yl)methyl)-3-(tetrahydro-2H-pyran-4-yl)imidazo[1,2-b][1,2,4]triazin-6-yl)methyl)-1-ethyl-1H-pyrazole-5-carboxamide]
20 | < 100 | > 1000 | CCc1nc2nc([C@@H](NC(=O)c3ccnn3C)C3CCC(F)(F)CC3)cn2nc1C[C@H]1C[C@@H](C(F)(F)F)CNC1=O [Compound 295, N—((S)-(4,4-difluorocyclohexyl)(3-ethyl-2-(((3R,5R)-2-oxo-5-(trifluoromethyl)piperidin-3-yl)methyl)imidazo[1,2-b][1,2,4]triazin-6-yl)methyl)-1-methyl-1H-pyrazole-5-carboxamide]
